Each structure is given as a SMILES string. Some results are limits rather than exact numbers.

41 molecules from PubChem BioAssay AID1985 (Southern Research Specialized Biocontainment Screening …, 2009) can be followed below.

In the assay the test system is S. Typhi PhoP-promoter GFP reporter, fluorescence, 4 h. Kind of assay: modified counter assay using GFP fluorescence, PhoP regulon inhibitor project, dose response (AID 1985).

One may read the IC50 as the concentration needed to halve the response being measured. In the case of `O=C(N/N=C/c1ccc(O)c(O)c1)C1c2ccccc2Oc2ccccc21`, the IC50 is 106 µM. With `Nc1nc(=S)c2[nH]cnc2[nH]1` the figure was 6.3 µM; with `O=c1oc2ccccc2nc1/C=C(\O)c1ccccc1`, 23.9 µM.

In the case of `O=C(CCc1ccccc1)NNC(=S)NC(=O)c1ccccc1`, the IC50 is 122 µM. On to `CCn1cc(C(=O)O)c(=O)c2cc(F)c(N3CCN(C(=O)Nc4ccccc4)CC3)cc21`, for which the IC50 is 21.1 µM. With `Cc1ccc2c(c1)N/C(=C(\C=C(/Cl)[N+](=O)[O-])[N+](=O)[O-])N2` the figure was 81.1 µM; with `CCn1cc(C(=O)O)c(=O)c2ccc(C)nc21`, 76.6 µM; with `Cc1cccn2c(=O)c(C=O)c(Cl)nc12`, 140 µM.

For the molecule `COc1nsnc1NS(=O)(=O)c1ccc(NC(=S)NC(=O)c2cccnc2)cc1`, the 50% inhibitory concentration (IC50) is 23.6 µM.

In the case of `OCCN1CCN(C2CCC(c3ccc(F)cc3)c3ccc(F)cc32)CC1` (stereo unspecified), the IC50 is 67.7 µM. With `CC(NCc1ccc(Cl)cc1)C(O)c1ccccc1` (stereo unspecified) the figure was 128 µM; with `CN1CCc2nc(SCC(=O)Nc3ccc(Cl)cc3)c(C#N)cc2C1`, 67.2 µM; with `Clc1ccc(C(c2ccccc2)N2CCNCC2)cc1` (stereo unspecified), 144 µM. With `Cn1c(-c2ccc3c(c2)OCO3)cnc1NCc1ccc(Cl)cc1` the figure was 140 µM. On to `CC1=NN(c2nc3ccccc3[nH]2)C(=O)C1Cc1ccccc1` (stereo unspecified), for which the IC50 was 36.5 µM.

As for `Cc1c2ccncc2c(C)c2c1[nH]c1ccccc12`, the IC50 is 32.9 µM.

Turning to `CCN(CC)CCNc1nc(-c2ccc(OC)cc2)c(-c2ccc(OC)cc2)s1`, the IC50 is less than 0.23 µM.

Take `O=C(CCN1CCN(C(=O)c2ccccc2)CC1)c1ccc(Br)cc1`: the IC50 is 144 µM. With `CCCCc1c(O)nc(SCC(=O)Nc2ccc3c(c2)CCC3)[nH]c1=O` the figure was 30.6 µM; with `N#Cc1c(-c2ccccc2)ccn(Cc2cccc(Cl)c2)c1=O`, 21.2 µM. As for `O=C(O)c1sccc1Oc1ccc(F)cc1[N+](=O)[O-]`, the IC50 is 12.6 µM.

Take `NC1CCN(c2c(F)cc3c(=O)c(C(=O)O)cn(C4CC4)c3c2Cl)C1` (stereo unspecified): the IC50 was less than 0.23 µM.

In the case of `C/C(=N\NC(=O)c1ccc(CN2CCc3ccccc3C2)cc1)c1ccccc1O`, the IC50 was 42 µM. With `[O-][n+]1c2c(c3c4non(O)c4ccc31)CCCC2` the figure was 130 µM. With `COc1ccc(Nc2ccnc3ccccc23)cc1` the figure was 85.8 µM; with `COC(=O)N/N=C/c1c[n+]([O-])c2ccccc2[n+]1[O-]`, 101 µM. With `O=C(Cc1ccccc1)N/N=C/c1cc(Br)cc(Cl)c1O` the figure was 44.9 µM. As for `C/C(O)=C\c1nc2ccccc2oc1=O`, the IC50 is 14.9 µM. Regarding `CCCCNC1=CC(=O)C(=O)c2ccccc21`, the IC50 is 104 µM. With `O=S(=O)(Nc1ncccn1)c1ccc(NC(=S)Nc2ccc(Cl)cc2)cc1` the figure was 97.1 µM. With `CO[C@H]1C=CO[C@@]2(C)Oc3c(C)c(O)c4c(O)c(c(C=NN5CCN(C)CC5)c(O)c4c3C2=O)NC(=O)C(C)=CC=C[C@H](C)[C@H](O)[C@@H](C)[C@@H](O)[C@@H](C)[C@H](OC(C)=O)[C@@H]1C` the figure was 23.8 µM; with `COC12C(COC(N)=O)C3=C(C(=O)C(C)=C(N)C3=O)N1CC1C2N1C` (stereo unspecified), 31.2 µM. With `Cc1ccc(S(=O)(=O)NNc2ccccc2)cc1` the figure was 134 µM; with `N#C/C(=C(/O)c1ccco1)c1nc2ccccc2s1`, 54.8 µM.

For `CC(=O)Nc1ccc(S(=O)(=O)NNc2cccc(C)c2)cc1`, the IC50 is 58.9 µM. With `Cc1ccc(C[n+]2c(-c3ccc(C)cc3)cc(-c3ccc(C)cc3)cc2-c2ccc(C)cc2)cc1` the figure was 15.6 µM. With `O=C(C[n+]1cc(-c2ccc(Cl)cc2)n2c1CCC2)Nc1nc(-c2ccccc2)cs1`, the IC50 was 36.7 µM.

Turning to `O=C(NC(=S)NNC(=O)c1cnccn1)c1ccc(F)cc1`, the IC50 was 25.1 µM. For `Oc1c(Br)cc(Br)cc1C=NCc1ccccc1`, the IC50 was 49.7 µM. As to `Cc1cc(C)c2c(N)c3ccccc3nc2n1`, the IC50 was 86 µM. On to `COc1cc(Br)cc(/C=N/c2ncn[nH]2)c1O`, for which the IC50 was 81.3 µM.
